Source: patent publication US9593305B2, “Differentiation of pluripotent stem cells” (Janssen Biotech, Inc., priority 2008, dated 2017)

Tested on: H1 human embryonic stem cells
Experiment: Secondary assay: panel of compounds with growth factor combinations and muscimol, no activin A (Example 6, Table 5)
Type: cell-based
Settings: no AA (with Wnt3a)
Method: Clusters of H1 human embryonic stem cells were grown on reduced growth factor […]™ (Invitrogen; Cat #356231)-coated tissue culture plastic. Cells were passaged using collagenase (Invitrogen; Cat #17104-019) treatment and gentle scraping, washed to remove residual enzyme, and plated with even dispersal at a ratio of 1:1 (surface area) on reduced growth factor […]™-coated 96-well black plates (Packard ViewPlates; PerkinElmer; Cat #6005182) using volumes of 100 μl/well. Cells were allowed to attach as clusters and then recover log phase growth over a 1 to 3 day period, feeding daily with MEF-conditioned medium supplemented with 8 ng/ml bFGF (R&D Systems; Cat #233-FB). Plates were maintained at 37° C., 5% CO2 in a humidified box throughout the duration of the assay. Stocks of growth factors purchased from R&D Systems were EGF (Cat #236-EG), FGF4 (Cat #235-F4), PDGF-A (Cat #221-AA), PDGF-D (Cat #1159-SB), PDGF-A/B (Cat #222-AB), and VEGF (Cat #293-VE). […] All growth factors were solubilized in PBS with 0.1% BSA (Sigma; Cat #A7888) and stored frozen at −80° C. […] Cat #D2650) and stored frozen at −80° C. Compounds were available as 5 mM stocks in 96-well plate format, solubilized in 100% DMSO and stored at −80° C. Compounds were further diluted to an intermediate concentration of 0.2 mM in 50 mM HEPES (Invitrogen; Cat #15630-080), 20% DMSO and stored at 4° C. All growth factors and inhibitors were prepared in a deep well, 96-well polypropylene plate, diluted to 5× intermediate stocks in DMEM:F12 base medium at the beginning of assay and stored at 4° C. A secondary screening assay was conducted, testing in triplicate and feeding on alternate days over the four-day assay timeframe. Assays were initiated by aspirating culture medium from each well followed by three washes in PBS to remove residual growth factors and serum. Test volumes of 80 μl per well were added back containing DMEM:F12 base medium (Invitrogen; Cat #11330-032) supplemented with 0.625% FCS (HyClone; […] All remaining growth factors were tested at a final assay concentration of 50 ng/ml (EGF, FGF4, PDGF-A, PDGF-A/B, VEGF). […] At the conclusion of four-days of culture, assay plates were washed twice with PBS, fixed with 4% paraformaldehyde (Alexis Biochemical; Cat #ALX-350-011) at room temperature for 20 minutes, then washed three times with PBS and permeabilized with 0.5% Triton X-100 (Sigma; Cat #T8760-2) for 20 minutes at room temperature. Cells were washed again three times with PBS and blocked with 4% chicken serum (Invitrogen; Cat #16110082) in PBS for 30 minutes at room temperature. Primary antibody (goat anti-human SOX17; R&D Systems; cat #AF1924) was diluted 1:100 in 4% chicken serum and added to each well for one hour at room temperature. Alexa Fluor 488 conjugated secondary antibody (chicken anti-goat IgG; Molecular Probes; Cat #AZ1467) was diluted 1:200 in PBS and added to each sample well after washing three times with PBS. To counterstain nuclei, 4 μg/ml Hoechst 33342 (Invitrogen; Cat #H3570) was added for ten minutes at room temperature. Plates were washed once with PBS and left in 100 μl/well PBS for imaging. Imaging was performed using an IN Cell Analyzer 1000 (GE Healthcare) utilizing the 51008bs dichroic for cells stained with Hoechst 33342 and Alexa Fluor 488. Exposure times were optimized from positive control wells and from untreated negative control wells stained with secondary antibody alone. Images from 15 fields per well were acquired to compensate for any cell loss during the bioassay and subsequent staining procedures. […] Segmentation for the nuclei was determined based on grayscale levels (baseline range 100-300) and nuclear size. Averages and standard deviations were calculated for each replicate data set. Total SOX17 protein expression was reported as total intensity or integrated intensity, defined as total fluorescence of the cell multiplied by the area of the cell. […]

[1] = EGF + FGF4 + PDGF-AB + Muscimol

SMILES | Cell Number, % of positive control (EGF) | Cell Number, Average Total Cell Number (EGF) | Sox17 Expression, % of positive control (EGF) | Sox17 Expression, Average Total Intensity (EGF) | Cell Number, % of positive control (EGF + FGF4) | Cell Number, Average Total Cell Number (EGF + FGF4) | Sox17 Expression, % of positive control (EGF + FGF4) | Sox17 Expression, Average Total Intensity (EGF + FGF4) | Cell Number, % of positive control (EGF + FGF4 + PDGF-A + Muscimol) | Cell Number, Average Total Cell Number (EGF + FGF4 + PDGF-A + Muscimol) | Sox17 Expression, % of positive control (EGF + FGF4 + PDGF-A + Muscimol) | Sox17 Expression, Average Total Intensity (EGF + FGF4 + PDGF-A + Muscimol) | Cell Number, % of positive control (EGF + FGF4 + PDGF-A + VEGF) | Cell Number, Average Total Cell Number (EGF + FGF4 + PDGF-A + VEGF) | Sox17 Expression, % of positive control (EGF + FGF4 + PDGF-A + VEGF) | Sox17 Expression, Average Total Intensity (EGF + FGF4 + PDGF-A + VEGF) | Cell Number, % of positive control (EGF + FGF4 + PDGF-AB) | Cell Number, Average Total Cell Number (EGF + FGF4 + PDGF-AB) | Sox17 Expression, % of positive control (EGF + FGF4 + PDGF-AB) | Sox17 Expression, Average Total Intensity (EGF + FGF4 + PDGF-AB) | also measured
CCN1CCCc2cccc(c2)-c2ncnc(n2)Nc2cccc(c2)CCNC(=O)C1 [Compound 29, 18-Ethyl-3,5,7,15,18,28-hexaazatetracyclo[20.3.1.1˜2,6˜0.1˜8,12˜]octacosa-1(26), 2(28), 3,5,8(27), 9,11,22,24-nonaen-16-one] | 18.84% | 1971 | −9.00% | −1.44E+07 | 71.10% | 7436 | −2.72% | −4.35E+06 | 96.30% | 10071 | 1.85% | 2.95E+06 | 84.70% | 8858 | −4.48% | −7.15E+06 | 62.48% | 6535 | −4.71% | −7.52E+06 | Cell Number, % of positive control [1]: 13.15%; Cell Number, Average Total Cell Number [1]: 1376; Sox17 Expression, % of positive control [1]: −8.91%; Sox17 Expression, Average Total Intensity [1]: −1.42E+07; Cell Number, % of positive control (EGF + PDGF-A + VEGF): 84.91%; Cell Number, Average Total Cell Number (EGF + PDGF-A + VEGF): 8880; Sox17 Expression, % of positive control (EGF + PDGF-A + VEGF): −5.34%; Sox17 Expression, Average Total Intensity (EGF + PDGF-A + VEGF): −8.53E+06; Cell Number, % of positive control (FGF4 + PDGF-A + VEGF): 77.89%; Cell Number, Average Total Cell Number (FGF4 + PDGF-A + VEGF): 8146; Sox17 Expression, % of positive control (FGF4 + PDGF-A + VEGF): −3.02%; Sox17 Expression, Average Total Intensity (FGF4 + PDGF-A + VEGF): −4.82E+06
O=C1NCCCc2cncc(c2)-c2ncnc(n2)Nc2cccc(c2)CN2CCCC1C2 (stereo not drawn) [Compound 17, 3,5,7,14,20,26,31-Heptaazapentacyclo[22.3.1.1-2,6˜1˜8,12˜1˜14,18˜]hentriaconta-1(28), 2(31), 3,5,8(30), 9,11,24,26-nonaen-19-one] | 73.43% | 6942 | 0.74% | 1.27E+06 | 60.69% | 5738 | 1.83% | 3.14E+06 | 144.37% | 13649 | 8.43% | 1.45E+07 | 110.85% | 10480 | 5.23% | 8.97E+06 | 47.10% | 4453 | 0.54% | 9.30E+05 | Cell Number, % of positive control [1]: 109.91%; Cell Number, Average Total Cell Number [1]: 10391; Sox17 Expression, % of positive control [1]: 5.20%; Sox17 Expression, Average Total Intensity [1]: 8.92E+06; Cell Number, % of positive control (EGF + PDGF-A + VEGF): 60.59%; Cell Number, Average Total Cell Number (EGF + PDGF-A + VEGF): 5728; Sox17 Expression, % of positive control (EGF + PDGF-A + VEGF): 1.24%; Sox17 Expression, Average Total Intensity (EGF + PDGF-A + VEGF): 2.14E+06; Cell Number, % of positive control (FGF4 + PDGF-A + VEGF): 139.59%; Cell Number, Average Total Cell Number (FGF4 + PDGF-A + VEGF): 13198; Sox17 Expression, % of positive control (FGF4 + PDGF-A + VEGF): 7.54%; Sox17 Expression, Average Total Intensity (FGF4 + PDGF-A + VEGF): 1.29E+07
O=C1NCCCc2cncc(c2)-c2ncnc(n2)Nc2cc(Cl)cc(c2)CN2CCCC1C2 (stereo not drawn) [Compound 37, 10-Chloro-3,5,7,14,20,26,31-heptaazapentacyclo[22.3.1.1˜2,6˜0.1˜8,12˜0.1˜14,18˜]hentriaconta-1(28), 2(31), 3,5,8(30), 9,11,24,26-nonaen-19-one] | 76.17% | 7966 | −7.42% | −1.19E+07 | 66.28% | 6932 | −2.89% | −4.62E+06 | 55.66% | 5821 | −7.64% | −1.22E+07 | 83.93% | 8778 | 0.09% | 1.39E+05 | 71.46% | 7473 | −1.63% | −2.61E+06 | Cell Number, % of positive control [1]: 75.67%; Cell Number, Average Total Cell Number [1]: 7914; Sox17 Expression, % of positive control [1]: −1.20%; Sox17 Expression, Average Total Intensity [1]: −1.91E+06; Cell Number, % of positive control (EGF + PDGF-A + VEGF): 123.88%; Cell Number, Average Total Cell Number (EGF + PDGF-A + VEGF): 12956; Sox17 Expression, % of positive control (EGF + PDGF-A + VEGF): −7.82%; Sox17 Expression, Average Total Intensity (EGF + PDGF-A + VEGF): −1.25E+07; Cell Number, % of positive control (FGF4 + PDGF-A + VEGF): 64.36%; Cell Number, Average Total Cell Number (FGF4 + PDGF-A + VEGF): 6731; Sox17 Expression, % of positive control (FGF4 + PDGF-A + VEGF): −6.89%; Sox17 Expression, Average Total Intensity (FGF4 + PDGF-A + VEGF): −1.10E+07
